Values joined by “and” are separate entries in the source; they are usually repeats but may differ in a detail not shown here. Equal entries are not always repeated.
How the values were obtained:
liver = details: mouse, in vivo, ip
Experimental: After 3 hours/6 hours, blood and liver were collected on day 1, day 2, day 3, and day 5. Hematoxylin and eosin staining was applied to the collected liver and histologically analyzed (FIG. 20).

spleen (SP) = assay: Whole organ transcriptome (GeneChip microarray) of spleen 6 h after adjuvant administration: sDEGs, hierarchical clustering; type: in vivo, C57BL/6 mice; as to adjuvant group (cluster) in SP: key: G1 (interferon signaling); G2 (metabolism of lipids and lipoproteins); G3 (response to stress); G4 (response to wounding); G5 (phosphate-containing compound metabolic process); G6 (phagosome)
[1] = system: preferentially upregulated genes in LV, SP, LN; assay: Z-score-based differential gene expression analysis (adjuvant group- or adjuvant-associated genes, 40 module mapping, TargetMine annotation); type: in vivo, C57BL/6 mice; details: liver (LV); gene group G1, module 20; individual mice x1-x3; route ID/IP/IN
Method in brief: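 Gene groups for each organ were built from combined z-score cutoffs across adjuvants, ranging from z>1 to z>3. Scores came from fold changes standardized per gene over the whole organ data set, with the three replicate z-scores added per adjuvant; sums above 3 marked preferential expression.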

[2] = system: inguinal lymph nodes (LN); assay: Whole organ transcriptome (GeneChip microarray) of draining inguinal lymph nodes 6 h after adjuvant administration: sDEGs, gene modules, hierarchical clustering; type: in vivo, C57BL/6 mice; details: lymph node; as to adjuvant group (cluster) in LN: key: G1 (interferon signaling); G2 (metabolism of lipids and lipoproteins); G3 (response to stress); G4 (response to wounding); G5 (phosphate-containing compound metabolic process); G6 (phagosome)
[3] = i.d. administration, fold change <0.667, p<0.01, customized PA call=1, 6 h after adjuvant
[4] = i.d. administration, fold change >1.5, p<0.01, customized PA call=1, 6 h after adjuvant

## heptanoyl-γ-D-glutamyl-(L)-meso-diaminopimelyl-(D)-alanine [FK565]
liver
  histological finding in liver (hematoxylin and eosin): liver damage
Spleen (SP); hierarchical clustering
  adjuvant group (cluster) in SP: G3
Spleen (SP); [3]
  Number of gene probes with statistically significant changes (sDEGs), SP, Down: 624
Spleen (SP); [4]
  Number of gene probes with statistically significant changes (sDEGs), SP, Up: 1672
[1]
  Z score of gene expression, Adar (probe 1425405_a_at): −0.4 (2×) and −0.5
  Z score of gene expression, Adar (probe 1434268_at): −0.1
  Z score of gene expression, Ddx58 (probe 1436562_at): −0.2 (2×) and −0.3
  Z score of gene expression, Ddx58 (probe 1456890_at): −0.5 (2×) and −0.1
  Z score of gene expression, Eif2ak2 (probe 1422005_at): 0.05 and 0.09 and −0.1
  Z score of gene expression, G3bp2 (probe 1421323_a_at): −0.3 (2×) and −0.2
  Z score of gene expression, Gm9706///Isg15 (probe 1431591_s_at): −0.1 (2×) and −0.2
  Z score of gene expression, H2-T10///H2-T22///H2-T9 (probe 1449875_s_at): 0.21 and 0.04 and 0.29
  Z score of gene expression, Ifih1 (probe 1426276_at): −0.3
  Z score of gene expression, Ifit1 (probe 1449025_at): −0.4
  Z score of gene expression, Ifit1 (probe 1450783_at): −0.4
  Z score of gene expression, Irf7 (probe 1417244_a_at): −0.3 (2×) and −0.4
  Z score of gene expression, Irgm1 (probe 1418825_at): 0.07 and 0.13 and 0.08
  Z score of gene expression, Mndal (probe 1426906_at): −0.4 and −0.5 (2×)
  Z score of gene expression, Pml (probe 1448757_at): −0.5 and −0.6 and −0.8
  Z score of gene expression, Pml (probe 1456103_at): −0.5
  Z score of gene expression, Rnf213 (probe 1455500_at): 0.02 and 0.06 and 0.03
  Z score of gene expression, Rsad2 (probe 1436058_at): −0.4
  Z score of gene expression, Shisa5 (probe 1423986_a_at): −0.1 and 0.01 and 0.18
  Z score of gene expression, Shisa5 (probe 1437503_a_at): −0.2 and −0.3 and −0.1
  Z score of gene expression, Stat1 (probe 1450033_a_at): −0.1 and −0 and 0
  Z score of gene expression, Stat1 (probe 1450034_at): −0.1 (2×) and −0
  Z score of gene expression, Tdrd7 (probe 1426716_at): −0.5 (2×) and −0.4
  Z score of gene expression, Tor1aip2 (probe 1418115_s_at): −0.6 and −0.5 (2×)
  Z score of gene expression, Tor1aip2 (probe 1418116_at): −0.7 (2×) and −0.9
  Z score of gene expression, Tor1aip2 (probe 1435526_at): −0.8 and −0.9 (2×)
  Z score of gene expression, Trim12a (probe 1437432_a_at): 0.1 and −0.1 and −0.2
  Z score of gene expression, Uba7 (probe 1426970_a_at): −0.4 and −0.5 and −0.3
[2]; hierarchical clustering
  adjuvant group (cluster) in LN: G3
[2]; [3]
  Number of gene probes with statistically significant changes (sDEGs), LN, Down: 306
[2]; [4]
  Number of gene probes with statistically significant changes (sDEGs), LN, Up: 526
